Experimental data: US20130005747A1, “METHOD FOR SELECTING A CANCER THERAPY” (Cyclacel Limited, priority 2010, published 2013)

Legend:
H1650 = assay: Cell line IC50 (Table 3); assay type: cell-based, human; conditions: Lung
MDA-MB-436 = assay: Cell line IC50 (Table 3); assay type: cell-based, human; conditions: Ras WT, Breast
H2052 = assay: Cell line IC50 (Table 3); assay type: cell-based, human; conditions: Mesothelioma
LoVo = assay: Cell line IC50 (Table 3); assay type: cell-based, human; conditions: K-Ras G13D, Colon
Saos-2 = assay: Cell line IC50 (Table 3); assay type: cell-based; conditions: Homo sapiens, Ras WT, Osteosarcoma
H292 = assay: Cell line IC50 (Table 3); assay type: cell-based, human; conditions: Lung
Colo205 = assay: Cell line IC50 (Table 3); assay type: cell-based, human; conditions: Colon
HT-29 = assay: Cell line IC50 (Table 3); assay type: cell-based; conditions: Homo sapiens, Ras WT, Colon
NCI-H460 = assay: Cell line IC50 (Table 3); assay type: cell-based, human; conditions: K-Ras Q61H, Lung
A549 = assay: Cell line IC50 (Table 3); assay type: cell-based, human; conditions: K-Ras G12S, Lung
MESSA = assay: Cell line IC50 (Table 3); assay type: cell-based, human; conditions: Ras WT, sarcoma
MCF7 = assay: Cell line IC50 (Table 3); assay type: cell-based, human; conditions: Ras WT, Breast
NCI-H929 = assay: Cell line IC50 (Table 3); assay type: cell-based, human; conditions: N-Ras, Myeloma
A2780 = assay: Cell line IC50 (Table 3); assay type: cell-based, human; conditions: Ras WT, Ovary
H358 = assay: Cell line IC50 (Table 3); assay type: cell-based, human; conditions: Lung
cell lines of Table 3 = assay: Cell line panel of Table 3, summary over cell lines; assay type: cell-based, human; conditions: median over the cell lines of Table 3
CDK = CDK inhibitory profile; assay type: biochemical; conditions: compared with roscovitine
LP-1 = assay: Cell line IC50 (Table 3); assay type: cell-based; conditions: Homo sapiens, Ras WT, Myeloma
HCT 116 = assay: Cell line IC50 (Table 3); assay type: cell-based; conditions: Homo sapiens, K-Ras G13D, Colon
[1] = Homo sapiens, NCI-H1650, Ras WT
[2] = Homo sapiens, NCI-H2052, Ras WT
[3] = Homo sapiens, NCI-H358, K-Ras G12C

IC50 (H1650; [1]) [nM]	IC50 (MDA-MB-436; Homo sapiens) [nM]	IC50 (H2052; [2]) [nM]	IC50 (LoVo; Homo sapiens) [nM]	IC50 (Saos-2) [nM]	IC50 (H292; Homo sapiens, NCI-H292, Ras WT) [nM]	IC50 (Colo205; Homo sapiens, COLO 205, Ras WT) [nM]	IC50 (HT-29) [nM]	IC50 (NCI-H460; Homo sapiens) [nM]	IC50 (A549; Homo sapiens) [nM]	IC50 (MESSA; Homo sapiens, MES-SA) [nM]	IC50 (MCF7; Homo sapiens) [nM]	IC50 (NCI-H929; Homo sapiens) [nM]	IC50 (A2780; Homo sapiens) [nM]	IC50 (H358; [3]) [nM]	IC50 (cell lines of Table 3; Homo sapiens) [nM]	IC50 (LP-1) [nM]	IC50 (HCT 116) [nM]	SMILES	CDK inhibitory profile (in words) (CDK)	other results
6500	6600	5200	4500	5300	6600	4500	4100	2800	3000	3600	3600	5200	2600	2700	4500			CC[C@@H](Nc1nc(NCc2cccnc2)c2ncn(C(C)C)c2n1)C(C)(C)O [Compound B, (3R)-3-{9-isopropyl-6-[(pyridin-3-ylmethyl)-amino]-9H-purin-2-ylamino}-2-methyl-pentan-2-ol]	very similar CDK inhibitory profiles to roscovitine	
3700	3400	2400	2200	2500	2300	2300	1700	2200	1600	1600	1600	2400	1100	800	2200	1600	1600	CC[C@H](Nc1nc(NCc2cccnc2)c2ncn(C(C)C)c2n1)C(C)(C)O [Compound C, (3S)-3-{9-isopropyl-6-[(pyridin-3-ylmethyl)-amino]-9H-purin-2-ylamino}-2-methyl-pentan-2-ol]	very similar CDK inhibitory profiles to roscovitine	
1200	1000	900	800	1400	900	800	1200	700	500	500	400	800	400	300	800	500	400	CC[C@H](Nc1nc(NCc2cccnc2)c2ncn(C(C)C)c2n1)[C@@H](C)O [Compound D, (2R,3S)-3-({9-isopropyl-6-[(pyridin-3-ylmethyl)amino]-9H-purin-2-yl}amino)pentan-2-ol]	very similar CDK inhibitory profiles to roscovitine	
																		CC[C@H](Nc1nc(NCc2cnc(C)cc2C)c2ncn(C(C)C)c2n1)[C@@H](C)O [Compound A]		IC50 (H1650; Ras WT): 500 nM; IC50 (MDA-MB-436): 400 nM; IC50 (H2052; Ras WT): 300 nM; IC50 (LoVo): 700 nM; IC50 (H292; Ras WT): 400 nM; IC50 (Colo205; Ras WT): 300 nM; IC50 (NCI-H460): 500 nM; IC50 (A549): 200 nM; IC50 (MESSA): 200 nM; IC50 (MCF7): 300 nM; IC50 (NCI-H929): 400 nM; IC50 (A2780): 400 nM; IC50 (H358; K-Ras G12C): 200 nM; IC50 (cell lines of Table 3): 400 nM
